From patent US5043450A, “8-alkoxyquinolonecarboxylic acid and salts thereof” (priority 1986, dated 1991)
≈ marks a conversion by molar mass, not a printed value.

Legend:
Format in all cases: cell-based
P. cepacia GIFU 518 = test: Antibacterial spectra, MIC; conditions: Burkholderia cepacia, GIFU518; 10^6 cells/ml; Gram -; read-out: MIC
[1] = system: Alcaligenes faecalis 0114002; test: Antibacterial spectra, MIC; conditions: 10^6 cells/ml, Gram -, read-out: MIC
[2] = system: Klebsiella pneumoniae KY(GN)6445; test: Antibacterial spectra, MIC
P. maltophilia GIFU 2491 = test: Antibacterial spectra, MIC; conditions: Stenotrophomonas maltophilia, GIFU2491; 10^6 cells/ml; Gram -; read-out: MIC
[3] = system: Escherichia coli NIHJ JC-2; test: Antibacterial spectra, MIC; conditions: NIHJJC2
[4] = system: Propionibacterium acens 11828; test: Antibacterial spectra, MIC; conditions: 10^6 cells/ml, Gram +, read-out: MIC
[5] = system: Staphylococcus aureus 209 P; test: Antibacterial spectra, MIC; conditions: 10^6 cells/ml, Gram +, read-out: MIC
[6] = system: B. thetaiotaomicron (0661); test: Antibacterial spectra, MIC; conditions: Bacteroides thetaiotaomicron; 10^6 cells/ml; Gram -; read-out: MIC
B. fragilis 25285 = test: Antibacterial spectra, MIC; conditions: Bacteroides fragilis, 10^6 cells/ml, Gram -, read-out: MIC
B. vulgatus KYA 29327 = test: Antibacterial spectra, MIC; conditions: Phocaeicola vulgatus, KYA29327; 10^6 cells/ml; Gram -; read-out: MIC
[7] = system: Veillonella parvula KYA 10790; test: Antibacterial spectra, MIC; conditions: KYA10790, 10^6 cells/ml, Gram -, read-out: MIC
E. coli ATCC 10536 = test: Antibacterial spectra, MIC; conditions: Escherichia coli, ATCC10536
Pst. micros UPI 5464-1 = test: Antibacterial spectra, MIC; conditions: Parvimonas micra, UPI54641; 10^6 cells/ml; Gram +; read-out: MIC
F. varium KYA 8501 = test: Antibacterial spectra, MIC; conditions: Fusobacterium varium, KYA8501; 10^6 cells/ml; Gram -; read-out: MIC
S. pyogenes IID 692 = test: Antibacterial spectra, MIC; conditions: Streptococcus pyogenes, IID692; 10^6 cells/ml; Gram +; read-out: MIC
[8] = system: Acinetobacter anitratus IID 876; test: Antibacterial spectra, MIC; conditions: Acinetobacter calcoaceticus, IID876; 10^6 cells/ml; Gram -; read-out: MIC
P. aeruginosa IID 1210 = test: Antibacterial spectra, MIC; conditions: Pseudomonas aeruginosa, IID1210; 10^6 cells/ml; Gram -; read-out: MIC
S. pneumoniae IID 552 = test: Antibacterial spectra, MIC; conditions: Streptococcus pneumoniae, IID552; 10^6 cells/ml; Gram +; read-out: MIC
[9] = system: Serratia marcescens IID 618; test: Antibacterial spectra, MIC; conditions: IID618, 10^6 cells/ml, Gram -, read-out: MIC
P. aeruginosa IFO 12689 = test: Antibacterial spectra, MIC; conditions: Pseudomonas aeruginosa, IFO12689; 10^6 cells/ml; Gram -; read-out: MIC
Bacilus subtilis PCI 219 = test: Antibacterial spectra, MIC; conditions: Bacillus subtilis, PCI219
[10] = system: Eubacterium lentum GAI 5242; test: Antibacterial spectra, MIC; conditions: Eggerthella lenta, GAI5242
K. pneumoniae 1-220S = test: Antibacterial spectra, MIC; conditions: Klebsiella pneumoniae, 1220S; 10^6 cells/ml; Gram -; read-out: MIC
P. mirabilis IID 994 = test: Antibacterial spectra, MIC; conditions: Proteus mirabilis, IID994; 10^6 cells/ml; Gram -; read-out: MIC
[11] = system: S. aureus IID 670 (Terajima); test: Antibacterial spectra, MIC; conditions: Staphylococcus aureus, IID670; 10^6 cells/ml; Gram +; read-out: MIC
S. epidermidis IID 866 = test: Antibacterial spectra, MIC; conditions: Staphylococcus epidermidis, IID866; 10^6 cells/ml; Gram +; read-out: MIC
C. perfringens KYA 13123 = test: microbe, parasite or virus in culture; conditions: Clostridium perfringens, KYA13123
B. fragilis 0558 = test: Antibacterial spectra, MIC; conditions: Bacteroides fragilis, 10^6 cells/ml, Gram -, read-out: MIC
[12] = system: Pseudomonas aeruginosa V-1; test: Antibacterial spectra, MIC; conditions: V1, 10^6 cells/ml, Gram -, read-out: MIC
[13] = system: Fusobacterium mortiferum 4249; test: Antibacterial spectra, MIC; conditions: 10^6 cells/ml, Gram -, read-out: MIC
[14] = system: Salmonella enteritidis IID 604; test: Antibacterial spectra, MIC; conditions: Salmonella enterica; 10^6 cells/ml; Gram -; read-out: MIC
[15] = system: Peptostreptococcus anaerobius KYA 27337; test: Antibacterial spectra, MIC; conditions: KYA27337, 10^6 cells/ml, Gram +, read-out: MIC
[16] = system: Morganella morganii IID 602; test: Antibacterial spectra, MIC; conditions: IID602, 10^6 cells/ml, Gram -, read-out: MIC
[17] = system: Peptococcus magnus KY 017; test: Antibacterial spectra, MIC; conditions: Finegoldia magna, KY017; 10^6 cells/ml; Gram +; read-out: MIC
[18] = system: Bacteroides fragilis GM 7000; test: Antibacterial spectra, MIC; conditions: GM7000, 10^6 cells/ml, Gram -, read-out: MIC
B. distasonis 8503 = test: Antibacterial spectra, MIC; conditions: Parabacteroides distasonis, 10^6 cells/ml, Gram -, read-out: MIC

In the case of `CCOc1c(N2CCNCC2)c(F)cc2c(=O)c(C(=O)O)cn(C3CC3)c12` [Exp. 18, 1-cyclopropyl-6-fluoro-1,4-dihydro-8-ethoxy-4-oxo-7-(1-piperazinyl)-3-quinolinecarboxylic acid], the MIC (P. cepacia GIFU 518) is reported as 3.13 µg/mL (≈ 8.34 µM), the MIC [1] is reported as 0.78 µg/mL (≈ 2.08 µM) and the MIC [2] is reported as no more than 0.05 µg/mL. For the same compound, the MIC (P. maltophilia GIFU 2491) was 0.39 µg/mL (≈ 1.04 µM), the MIC [3] was no more than 0.05 µg/mL and the MIC [4] was 12.5 µg/mL (≈ 33.3 µM). It also gave an MIC [5] of 0.2 µg/mL (≈ 0.533 µM), an MIC [6] of 12.5 µg/mL (≈ 33.3 µM) and an MIC (B. fragilis 25285) of 3.13 µg/mL (≈ 8.34 µM). For the same compound, the MIC (B. vulgatus KYA 29327) was 12.5 µg/mL (≈ 33.3 µM), the MIC [7] was 0.78 µg/mL (≈ 2.08 µM) and the MIC (E. coli ATCC 10536) was no more than 0.05 µg/mL. For the same compound, the MIC (Pst. micros UPI 5464-1) was 0.78 µg/mL (≈ 2.08 µM), the MIC (F. varium KYA 8501) was 25 µg/mL (≈ 66.6 µM) and the MIC (S. pyogenes IID 692) was 3.13 µg/mL (≈ 8.34 µM). The MIC [8] was 0.1 µg/mL (≈ 0.266 µM), the MIC (P. aeruginosa IID 1210) was 6.25 µg/mL (≈ 16.6 µM) and the MIC (S. pneumoniae IID 552) was 0.78 µg/mL (≈ 2.08 µM). It also gave an MIC [9] of 0.2 µg/mL (≈ 0.533 µM), an MIC (P. aeruginosa IFO 12689) of 3.13 µg/mL (≈ 8.34 µM) and an MIC (Bacilus subtilis PCI 219) of no more than 0.05 µg/mL. It also gave an MIC [10] of 1.56 µg/mL (≈ 4.16 µM), an MIC (K. pneumoniae 1-220S) of 0.2 µg/mL (≈ 0.533 µM) and an MIC (P. mirabilis IID 994) of 0.1 µg/mL (≈ 0.266 µM). For the same compound, the MIC [11] was 0.39 µg/mL (≈ 1.04 µM), the MIC (S. epidermidis IID 866) was 0.39 µg/mL (≈ 1.04 µM) and the MIC (C. perfringens KYA 13123) was 1.56 µg/mL (≈ 4.16 µM). The MIC (B. fragilis 0558) was 12.5 µg/mL (≈ 33.3 µM), the MIC [12] was 0.78 µg/mL (≈ 2.08 µM) and the MIC [13] was 3.13 µg/mL (≈ 8.34 µM). It also gave an MIC [14] of 0.1 µg/mL (≈ 0.266 µM), an MIC [15] of 3.13 µg/mL (≈ 8.34 µM) and an MIC [16] of 0.39 µg/mL (≈ 1.04 µM). It also gave an MIC [17] of 0.78 µg/mL (≈ 2.08 µM), an MIC [18] of 3.13 µg/mL (≈ 8.34 µM) and an MIC (B. distasonis 8503) of 12.5 µg/mL (≈ 33.3 µM).
